Results taken from EP4635969A1, “NOVEL GLUCOCORTICOID, METHOD FOR PREPARING SAME, AND USE THEREOF” (Tianjin Pharmaceutical Biotechnology Co., Ltd., priority 2022, dated 2024).
Where two headings read alike, the source gives them in different places.

Key:
[1] = target: T1, progesterone receptor (PR) (Homo sapiens, UniProt P06401); assay: Assay for agonist activity on progesterone receptor (luciferase reporter, HEK293 cells transfected with pBIND-PR plasmid); assay type: cell-based; details: for Target selectivity PR/GR: ratio of EC50 values
T1 sequence (P06401 678-933): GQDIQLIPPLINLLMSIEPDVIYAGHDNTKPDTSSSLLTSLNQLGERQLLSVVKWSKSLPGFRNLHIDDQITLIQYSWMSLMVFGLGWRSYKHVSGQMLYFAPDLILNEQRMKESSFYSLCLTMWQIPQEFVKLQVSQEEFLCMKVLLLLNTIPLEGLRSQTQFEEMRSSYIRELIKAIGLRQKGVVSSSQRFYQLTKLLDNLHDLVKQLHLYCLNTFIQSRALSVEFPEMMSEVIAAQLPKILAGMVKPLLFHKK
Summary of the method: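 HEK293 cells transiently transfected with pBIND-MR or pBIND-PR, seeded in phenol red-free DMEM with 5% charcoal-stripped serum. Compounds tested as 12-point 4-fold dilutions from 50 µM in duplicate, 0.1% DMSO blank. Luciferase luminescence read, EC50 by nonlinear fit.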

[2] = system: inflammatory bowel disease model rats; assay: Inflammatory bowel disease experiment (TNBS model): macroscopic injury score of the colon; assay type: in vivo; details: for inflammatory response on the intestinal surface / intestinal symptoms: compared with the model group
Description: Pharmacological Example 7: Pharmacodynamic Experiment on Inflammatory Bowel Disease in Rats
Test samples: The jet-milled compounds 23 and 34 were accurately weighed and prepared as 2 mg/mL clear solutions using anhydrous ethanol, respectively. The solutions were then diluted to 0.2 mg/mL with double-distilled water as the test samples, and stored at room temperature protected from light until use.
Animals in Groups 2 to 5 were subjected to trinitrobenzene sulfonic acid (TNBS) modeling as follows: A 5% TNBS aqueous solution was adjusted to 20 mg/mL TNBS (50% ethanol solution) with alcohol and water. After fasting for 24 h, the rats were anesthetized using an inhalation anesthesia machine. A silicone hose was inserted approximately 8 cm into the anus, and then TNBS was injected at a dose of 50 mg/kg. After injection, the rats were placed vertically for 1 min to prevent the backflow of TNBS solution. Then, the rats were placed into their cages for observation until the animals recovered.
Drug administration started one day before modeling, with one dose administered 1 hour before modeling and then once a day for 5 consecutive days. […] Table 14. Animal grouping and drug administration dosages
The experiment ended on day 5 after TNBS modeling. After isoflurane anesthesia, blood was collected from the hearts, and the rats were euthanized. The abdominal cavity was rapidly opened, and the macroscopic injury scoring of the colon in rats was performed based on the adhesion, obstruction, thickening of the colonic wall, colonic congestion, and necrosis in the colon area. After clearing the colonic contents, the colonic samples were longitudinally incised. The proximal 2/3 of the colon was excised, prepared into Swiss rolls, and stored in 4% neutral buffered formalin for histopathological analysis. Tissues were trimmed, dehydrated, paraffin-embedded, and sectioned (approximately 5 µm thickness), stained with hematoxylin-eosin (HE), and observed for pathological changes. Pathologists performed blind scoring of colonic lesions.
Quantitative indices were first subjected to Bartlett's test for homogeneity of variance. When the variance was homogeneous (P > 0.05), one-way analysis of variance (ANOVA) was used for a statistical test; if there was statistical significance (P ≤ 0.05), Dunnett's t-test (Dunnett method) was used to compare intergroup differences; if there was no statistical significance (P > 0.05), the statistical analysis was concluded. When the variance was heterogeneous (P ≤ 0.05), Kruskal-Wallis H rank-sum test (K-W method) was used for statistical analysis: if there was statistical significance (P ≤ 0.05), Mann-Whitney U test (M-W method) was further performed to compare intergroup differences; if there was no statistical significance (P > 0.05), the statistical analysis was concluded.

| Structure (SMILES) | EC50 [1] [nM] | Target selectivity PR/GR [1] | inflammatory response on the intestinal surface / intestinal symptoms [2] | EC50 ([1]; EC50 of agonist activity, HEK293 reporter cells, top concentration 50 µM, read-out: Nuclear receptor enzyme activity (nM) PR) [nM] | Macroscopic injury score ([2]; colon, day 5 after TNBS, 2 mg/kg once a day (compounds intraintestinally, dexamethasone by gavage)) |
| --- | --- | --- | --- | --- | --- |
| C[C@]12C=CC(=O)C=C1[C@@H](F)C[C@H]1[C@@H]3C[C@H]4OC(c5ccc(CSC6CCOC6=O)cc5)O[C@@]4(C(=O)SCC#N)[C@@]3(C)C[C@H](O)[C@@]12F (stereo partly drawn) [Compound 35, S-(Cyanomethyl) (2S,6aS,6bR,7S,8aS,8bS,11aR,12aS,12bS)-2,6b-difluoro-7-hydroxy-6a,8a-dimethyl-4-oxo-10-(4-( ((2-oxotetrahydrofuran-3-yl)thio)methyl)phenyl)-1,2,4,6a,6b,7,8,8a,11a,12,12a,12b-dodecahydro-8bH-naphtho[2',1':4,5]indeno[1,2-d][1,3]dioxole-8b-carbothioate] | > 50000 | > 2.4×10^5 | significantly alleviated the intestinal symptoms in inflammatory bowel disease model rats | – | – |
| C[C@]12C=CC(=O)C=C1CC[C@H]1[C@@H]3C[C@H]4OC(c5ccc(CSC6CCOC6=O)cc5)O[C@@]4(C(=O)CO)[C@@]3(C)C[C@H](O)[C@@]12Cl (stereo partly drawn) [Compound 23, (6aS,6bR,7S,8aS,8bS,11aR,12aS,12bS)-6b-Chloro-7-hydroxy-8b-(2-hydroxyacetyl)-6a,8a-dimethyl-10-(4-(((2-oxotetrahydrofuran-3-yl)thio)methyl)phenyl)-1,2,6a,6b,7,8,8a,8b,11a,12,12a,12b-do decahydro-4H-naphtho[2',1':4,5]indeno[1,2-d][1,3]dioxol-4-one] | – | > 2.4×10^5 | significantly inhibited the inflammatory response on the intestinal surface | > 50000 | 4.83 ± 1.10" |
| C[C@]12C=CC(=O)C=C1[C@@H](F)C[C@H]1[C@@H]3C[C@H]4OC(c5ccc(CSC6CCOC6=O)cc5)O[C@@]4(C(=O)OCF)[C@@]3(C)C[C@H](O)[C@@]12F (stereo partly drawn) [Compound 36, Fluoromethyl (2S,6aS,6bR,7S,8aS,8bS,11aR,12aS,12bS)-2,6b-difluoro-7-hydroxy-6a,8a-dimethyl-4-oxo-10-(4-( ((2-oxotetrahydrofuran-3-yl)thio)methyl)phenyl)-1,2,4,6a,6b,7,8,8a,11a,12,12a,12b-dodecahydro-8bH-naphtho[2',1':4,5]indeno[1,2-d][1,3]dioxole-8b-carboxylate] | > 50000 | > 4.2×10^5 | significantly alleviated the intestinal symptoms in inflammatory bowel disease model rats | – | – |
| C[C@]12C=CC(=O)C=C1CC[C@H]1[C@@H]3C[C@H]4OC(c5ccc(COC6CCOC6=O)cc5)O[C@@]4(C(=O)CO)[C@@]3(C)C[C@H](O)[C@@]12Cl (stereo partly drawn) [Compound 22, (6aS,6bR,7S,8aS,8bS,11aR,12aS,12bS)-6b-Chloro-7-hydroxy-8b-(2-hydroxyacetyl)-6a,8a-dimethyl-10-(4-(((2-oxotetrahydrofuran-3-yl)oxy)methyl)phenyl)-1,2,6a,6b,7,8,8a,8b,11a,12,12a,12b-do decahydro-4H-naphtho[2',1':4,5]indeno[1,2-d][1,3]dioxol-4-one] | > 50000 | > 9.1×10^4 | significantly alleviated the intestinal symptoms in inflammatory bowel disease model rats | – | – |
| C[C@]12C=CC(=O)C=C1CC[C@H]1[C@@H]3C[C@H]4OC(c5ccc(CSC6CCOC6=O)nc5)O[C@@]4(C(=O)CO)[C@@]3(C)C[C@H](O)[C@@]12F (stereo partly drawn) [Compound 47, (6aS,6bR,7S,8aS,8bS,11aR,12aS,12bS)-6b-Fluoro-7-hydroxy-8b-(2-hydroxyacetyl)-6a,8a-dimethyl-10-(6-(((2-oxotetrahydrofuran-3-yl)thio)methyl)pyridin-3-yl)-1,2,6a,6b,7,8,8a,8b,11a,12,12a,12 b-dodecahydro-4H-naphtho[2',1':4,5]indeno[1,2-d][1,3]dioxol-4-one] | > 50000 | > 1.5×10^5 | significantly alleviated the intestinal symptoms in inflammatory bowel disease model rats | – | – |
